Data: ChEMBL document CHEMBL2202954, “The effect of PLC-γ2 inhibitors on the growth of human tumour cells” (2012)

What was measured:
Assay type in all cases: functional
NCI-H226 = assay: Cytotoxicity against human NCI-H226 cells assessed as cellular growth at 10 uM by SRB assay
ACHN = assay: Cytotoxicity against human ACHN cells assessed as cellular growth at 10 uM by SRB assay
Malme-3M = assay: Cytotoxicity against human MALME-3M cells assessed as cellular growth at 10 uM by SRB assay
BT-549 = assay: Cytotoxicity against human BT549 cells assessed as cellular growth at 10 uM by SRB assay
TK-10 = assay: Cytotoxicity against human TK10 cells assessed as cellular growth at 10 uM by SRB assay
SK-MEL-2 = assay: Cytotoxicity against human SK-MEL-2 cells assessed as cellular growth at 10 uM by SRB assay
COLO 205 = assay: Cytotoxicity against human COLO205 cells assessed as cellular growth at 10 uM by SRB assay
SW-620 = assay: Cytotoxicity against human SW620 cells assessed as cellular growth at 10 uM by SRB assay
SNB-19 = assay: Cytotoxicity against human SNB19 cells assessed as cellular growth at 10 uM by SRB assay
IGROV-1 = assay: Cytotoxicity against human IGROV1 cells assessed as cellular growth at 10 uM by SRB assay
K562 = assay: Cytotoxicity against human K562 cells assessed as cellular growth at 10 uM by SRB assay
NCI-H460 = assay: Cytotoxicity against human NCI-H460 cells assessed as cellular growth at 10 uM by SRB assay
UO-31 = assay: Cytotoxicity against human UO31 cells assessed as cellular growth at 10 uM by SRB assay
SN12C = assay: Cytotoxicity against human SN12C cells assessed as cellular growth at 10 uM by SRB assay
OVCAR-3 = assay: Cytotoxicity against human OVCAR3 cells assessed as cellular growth at 10 uM by SRB assay
HL-60(TB) = assay: Cytotoxicity against human HL-60(TB) cells assessed as cellular growth at 10 uM by SRB assay
A549 = assay: Cytotoxicity against human A549 cells assessed as cellular growth at 10 uM by SRB assay
A498 = assay: Cytotoxicity against human A498 cells assessed as cellular growth at 10 uM by SRB assay
U-251 = assay: Cytotoxicity against human U251 cells assessed as cellular growth at 10 uM by SRB assay
OVCAR-8 = assay: Cytotoxicity against human OVCAR8 cells assessed as cellular growth at 10 uM by SRB assay

SMILES | Activity (NCI-H226) | Activity (ACHN) | Activity (Malme-3M) | Activity (BT-549) | Activity (TK-10) | Activity (SK-MEL-2) | Activity (COLO 205) | Activity (SW-620) | Activity (SNB-19) | Activity (IGROV-1) | Activity (K562) | Activity (NCI-H460) | Activity (UO-31) | Activity (SN12C) | Activity (OVCAR-3) | Activity (HL-60(TB)) | Activity (A549) | Activity (A498) | Activity (U-251) | Activity (OVCAR-8)
O=C(Nc1nc2ccccc2s1)c1ccc(F)cc1 | 92.69% | 98.03% | 96.2% | 109.49% | 125.36% | 113.78% | 117.74% | 112.1% | 126.08% | 88.87% | 89.96% | 69.18% | 89.11% | 108.22% | 103.91% | 111.31% | 98.36% | 89.82% | 99.72% | 109.5%
Clc1ccccc1Nc1nnc(-c2ccncc2)s1 | 100.58% | 104.09% | 108.85% | 90.37% | 110.92% | 106.68% | 114.33% | 91.55% | 99.81% | 100.52% | 101.4% | 99.69% | 90.67% | 86% | 109.8% | 79.12% | 94.98% | 92.09% | 102.87% | 100.07%
O=C(Nc1ccc2oc(=O)ccc2c1)c1ccc(-c2ccc(Br)cc2)o1 | 112.35% | 121.66% | 130.92% | 118.79% | 102.05% | 121.49% | 124.46% | 107.9% | 105.93% | 126.49% | 95.77% | 100.9% | 127.52% | 99.06% | 125.42% | 101.52% | 100.63% | 101.8% | 98.16% | 101.05%
O=c1/c(=C/c2ccc(Cl)cc2Cl)sc2nc(-c3ccccc3)nn12 | 98.92% | 107.07% | 136.07% | 122.09% | 106% | 107.26% | 132.3% | 107.15% | 102.51% | 130.42% | 98.67% | 106.83% | 114.46% | 94.22% | 116% | 91.7% | 107.72% | 112.37% | 103.07% | 110.37%
COc1cc(/C=c2/sc3nc4ccccc4n3c2=O)cc(I)c1O | 94.19% | 107.3% | 109% | 102.32% | 116.5% | 104.64% | 103.31% | 93.08% | 108.08% | 110.46% | 51.46% | 95.07% | 70.56% | 101.23% | 97.63% | 81.81% | 88.66% | 69.55% | 101.21% | 97.39%
O=C1N=C(c2ccccc2)S/C1=C\c1ccc2c(c1)OCO2 | 95.12% | 99.6% | 94.49% | 108.62% | 110.48% | 110.33% | 101.56% | 89.42% | 98.6% | 101.91% | 73.5% | 96.54% | 86.92% | 94.15% | 95.8% | 111.12% | 95.78% | 80.95% | 90.93% | 96.76%
Cc1ccc(C(=O)/C=C2/Nc3ccc(C)cc3OC2=O)cc1 | 108.24% | 104.27% | 114.26% | 108.86% | 135.06% | 123.75% | 120.49% | 120.18% | 104.52% | 115.36% | 95.07% | 117.71% | 94.47% | 96.84% | 116.56% | 82.69% | 105.68% | 86.34% | 108.93% | 102.51%
Cc1cccc(-c2nc(-c3cccs3)no2)c1 | 94.62% | 99.9% | 112.31% | 88.13% | 68.05% | 100.25% | 111.56% | 90.68% | 106.75% | 61.64% | 94.59% | 94.9% | 59.19% |  | 104% | 96% | 100.01% | 82.09% | 82.28% | 98.72%
Cc1ccc(S(=O)(=O)Oc2ccc(-c3cnc4ccccc4n3)cc2)cc1 | 99.19% | 102.63% | 122.99% | 107.31% | 98.17% | 127.78% | 135.44% | 103.63% | 123.73% | 119.02% | 84.2% | 97% | 109.58% | 108.92% | 115.17% | 109.83% | 95.53% | 88.71% | 89.92% | 96.94%
O=C(Nc1ccc2oc(=O)ccc2c1)c1ccc(-c2ccc(Cl)c(Cl)c2)o1 | 92.4% | 78.44% | 100.19% | 77.96% | 90.37% | 102.15% | 121.29% | 100.55% | 101.4% | 106.69% | 65.27% | 100.41% | 65.88% | 86.83% | 102.55% | 85.04% | 50.07% | 101.16% | 92.91% | 94.2%
Nc1c(C(=O)Nc2ccccc2)sc2nc3c(cc12)C(=O)CCC3 | 68% | 49.71% | 76.23% | 65.66% | 63.62% | 38.68% | -18.41% | 27.25% | 36.05% | 36.43% | 17.06% | 12.88% | 71.08% | 59.85% | -19.35% | 19.38% | 19.69% | 37.32% | 25.69% | 39.92%
Cc1ccccc1NC(=O)c1sc2nc3c(cc2c1N)C(=O)CCC3 | 65.79% | 49.27% | 66.45% | 55.62% | 81.15% | 58.56% | 6.12% | 25.37% | 46.1% | 77.05% | 22.15% | 15.33% | 77.51% | 64.53% | 4.33% | 36.05% | 37.59% | 31.28% | 48.96% | 78.59%
Cc1ccc(Cl)cc1NC(=O)c1sc2nc3c(cc2c1N)C(=O)CCC3 | 88.29% | 55.94% | 81.13% | 93.5% | 96.55% | 64.51% | 39.71% | 36.54% | 68.14% | 75.72% | 33.61% | 28.15% | 83.44% | 80.57% | 22.12% | 82.22% | 53.86% | 51.16% | 59.13% | 89.97%
Cc1ccc(S(=O)(=O)NC2=NC(=O)/C(=C\c3ccccc3)S2)cc1 | 108.84% | 103.63% | 112.01% | 113.45% | 104.1% | 117.54% |  | 109.53% | 108.61% | 124.8% | 94.57% | 119.27% | 90.79% | 99.26% | 116.48% | 92.36% | 103.33% | 11.33% | 98.58% | 102.48%
O=S(=O)(Oc1ccc(-c2cnc3ccccc3n2)cc1)c1ccccc1 | 94.97% | 103.61% | 92.27% | 96.82% | 82.7% | 109.62% |  | 99.76% | 102.07% | 130.45% | 81.89% | 110.82% | 94.43% | 95.17% | 112.06% | 94.23% | 95.36% | 60.82% | 92.1% | 100.22%
Nc1c(C(=O)Nc2cccc(Cl)c2)sc2nc3c(cc12)C(=O)CCC3 | 57.93% | 54.19% | 49.7% | 66.38% | 64.95% | 69.74% | 10.22% | 31.28% | 38.19% | 52.39% | 22.78% | 10.27% | 57.11% | 54.42% | 10.31% | 33.11% | 28.25% | 49.32% | 46.41% | 75.34%
O=C(Nc1ccc(S(=O)(=O)Nc2nccs2)cc1)c1cccs1 | 108.77% | 116.25% | 104.82% | 114.16% | 104.94% | 113.23% | 135.23% | 111.55% | 106.66% | 120.24% | 104.24% | 123.68% | 95.49% | 103.07% | 116.67% | 85.93% | 96.04% | 114.15% | 101.85% | 106.2%
